Experimental data from US11987588B2, “Modulators of the beta-3 adrenergic receptor useful for the treatment or prevention of heart failure and disorders related thereto” (Arena Pharmaceuticals, Inc., priority 2017, dated 2024).

target: Beta-3 Adrenergic Receptor (Homo sapiens (Human), UniProt P13945); assay: Homogeneous Time-Resolved Fluorescence (HTRF) cAMP antagonist assay, IC50 determination; format: cell-based; settings: CHO-K1 cells stably expressing recombinant receptor, isoproterenol at EC90
Sequence (P13945 whole entry, species assumed): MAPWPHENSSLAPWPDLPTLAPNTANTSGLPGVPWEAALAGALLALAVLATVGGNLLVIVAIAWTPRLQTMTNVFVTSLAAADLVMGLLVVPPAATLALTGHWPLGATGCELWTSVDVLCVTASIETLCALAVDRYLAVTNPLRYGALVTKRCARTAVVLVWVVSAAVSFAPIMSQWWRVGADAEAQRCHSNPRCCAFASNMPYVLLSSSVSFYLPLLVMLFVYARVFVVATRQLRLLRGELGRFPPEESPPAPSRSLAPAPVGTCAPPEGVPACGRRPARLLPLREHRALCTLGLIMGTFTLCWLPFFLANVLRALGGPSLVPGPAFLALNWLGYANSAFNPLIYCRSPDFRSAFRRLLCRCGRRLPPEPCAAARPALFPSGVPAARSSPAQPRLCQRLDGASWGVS
Outline: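 Antagonist mode: isoproterenol at its predetermined EC90 added after compound to recombinant CHO-K1 cells in IBMX-containing PBS, 1 h, room temperature. Compounds tested as 5-fold, 10-point dilutions, top final typically 10 or 100 μM. HTRF signal converted to cAMP via standard curve, giving IC50.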

Compared with `Cc1ccc(F)c(S(=O)(=O)N2CCC3(CC2)CC(NC[C@H](O)COc2cccc(S(=O)(=O)NCCCN(C)C)c2)CO3)c1` (stereo partly drawn) [Compound 309, N-(3-(dimethylamino)propyl)-3-((2S)-3-(8-(2-fluoro-5-methylphenylsulfonyl)-1-oxa-8-azaspiro[4.5]decan-3-ylamino)-2-hydroxypropoxy)benzenesulfonamide], `Cc1cc(S(=O)(=O)N2CCC3(CC2)CC(NC[C@H](O)COc2cccc(S(=O)(=O)NCCCN(C)C)c2)CO3)ccc1Br` (stereo partly drawn) [Compound 310, 3-((2S)-3-(8-(4-bromo-3-methylphenylsulfonyl)-1-oxa-8-azaspiro[4.5]decan-3-ylamino)-2-hydroxypropoxy)-N-(3-(dimethylamino)propyl)benzenesulfonamide] is 3.4-fold lower in IC50: 3000 nM for the first, 877 nM for the second.

`CN(C)CCCNS(=O)(=O)c1cccc(OC[C@@H](O)CNC2COC3(CCN(S(=O)(=O)c4ccc5c(c4)NC(=O)CO5)CC3)C2)c1` (stereo partly drawn) [Compound 311, N-(3-(dimethylamino)propyl)-3-((2S)-2-hydroxy-3-(8-(3-oxo-3,4-dihydro-2H-benzo[b][1,4]oxazin-6-ylsulfonyl)-1-oxa-8-azaspiro[4.5]decan-3-ylamino)propoxy)benzenesulfonamide] and `CN(C)CCCNS(=O)(=O)c1cccc(OC[C@@H](O)CNC2COC3(CCN(S(=O)(=O)c4ccc5c(c4)N(C)CCO5)CC3)C2)c1` (stereo partly drawn) [Compound 316, N-(3-(dimethylamino)propyl)-3-((2S)-2-hydroxy-3-(8-(4-methyl-3,4-dihydro-2H-benzo[b][1,4]oxazin-6-ylsulfonyl)-1-oxa-8-azaspiro[4.5]decan-3-ylamino)propoxy)benzenesulfonamide] are within 1.5-fold of each other in IC50: 2000 nM for the first, 1940 nM for the second.

Compared with `CN(C)CCCNS(=O)(=O)c1cccc(OC[C@@H](O)CNC2COC3(CCN(S(=O)(=O)c4ccc5nsnc5c4)CC3)C2)c1` (stereo partly drawn) [Compound 312, 3-((2S)-3-(8-(benzo[c][1,2,5]thiadiazol-5-ylsulfonyl)-1-oxa-8-azaspiro[4.5]decan-3-ylamino)-2-hydroxypropoxy)-N-(3-(dimethylamino)propyl)benzenesulfonamide], `CN(C)CCCNS(=O)(=O)c1cccc(OC[C@@H](O)CNC2COC3(CCN(S(=O)(=O)c4ccc5c(c4)CCCC5)CC3)C2)c1` (stereo partly drawn) [Compound 314, N-(3-(dimethylamino)propyl)-3-((2S)-2-hydroxy-3-(8-(5,6,7,8-tetrahydronaphthalen-2-ylsulfonyl)-1-oxa-8-azaspiro[4.5]decan-3-ylamino)propoxy)benzenesulfonamide] is 4.4-fold lower in IC50: 3170 nM for the first, 716 nM for the second.

Going from `Cc1c(S(=O)(=O)N2CCC3(CC2)CC(NC[C@H](O)COc2cccc(S(=O)(=O)NCCCN(C)C)c2)CO3)cnn1-c1ccccc1` (stereo partly drawn) [Compound 313, N-(3-(dimethylamino)propyl)-3-((2S)-2-hydroxy-3-(8-(5-methyl-1-phenyl-1H-pyrazol-4-ylsulfonyl)-1-oxa-8-azaspiro[4.5]decan-3-ylamino)propoxy)benzenesulfonamide] to `CN(C)CCCNS(=O)(=O)c1cccc(OC[C@@H](O)CNC2COC3(CCN(S(=O)(=O)c4ccc(-c5ccccc5)s4)CC3)C2)c1` (stereo partly drawn) [Compound 315, N-(3-(dimethylamino)propyl)-3-((2S)-2-hydroxy-3-(8-(5-phenylthiophen-2-ylsulfonyl)-1-oxa-8-azaspiro[4.5]decan-3-ylamino)propoxy)benzenesulfonamide], the IC50 falls from 4010 nM to 1070 nM (3.7-fold). The second is the more potent here.

Going from `CN(C)CCCNS(=O)(=O)c1cccc(OC[C@@H](O)CNC2COC3(CCN(S(=O)(=O)c4ccc5ccccc5c4)CC3)C2)c1` (stereo partly drawn) [Compound 317, N-(3-(dimethylamino)propyl)-3-((2S)-2-hydroxy-3-(8-(naphthalen-2-ylsulfonyl)-1-oxa-8-azaspiro[4.5]decan-3-ylamino)propoxy)benzenesulfonamide] to `CC(=O)NS(=O)(=O)c1cccc(OC[C@@H](O)CNC2COC3(CCN(S(=O)(=O)c4ccc5ccccc5c4)CC3)C2)c1` (stereo partly drawn) [Compound 318, N-(3-((2S)-2-hydroxy-3-(8-(naphthalen-2-ylsulfonyl)-1-oxa-8-azaspiro[4.5]decan-3-ylamino)propoxy)phenylsulfonyl)acetamide], the IC50 rises from 1010 nM to 2180 nM (2.2-fold).

`CNS(=O)(=O)c1cccc(OC[C@@H](O)CNC2COC3(CCN(S(=O)(=O)c4cccc(-c5ccc(CNCC(C)C)cc5)c4)CC3)C2)c1` (stereo partly drawn) [Compound 319, 3-((2S)-2-hydroxy-3-(8-(4′-((isobutylamino)methyl)biphenyl-3-ylsulfonyl)-1-oxa-8-azaspiro[4.5]decan-3-ylamino)propoxy)-N-methylbenzenesulfonamide] and `CNS(=O)(=O)c1cccc(OC[C@@H](O)CNC2COC3(CCN(S(=O)(=O)c4cccc(-c5ccc(CNCCC(C)C)cc5)c4)CC3)C2)c1` (stereo partly drawn) [Compound 320, 3-((2S)-2-hydroxy-3-(8-(4′-((isopentylamino)methyl)biphenyl-3-ylsulfonyl)-1-oxa-8-azaspiro[4.5]decan-3-ylamino)propoxy)-N-methylbenzenesulfonamide] are within 1.5-fold of each other in IC50: 34.3 nM for the first, 26.3 nM for the second.

First: CNS(=O)(=O)c1cccc(OC[C@@H](O)CNC2COC3(CCN(S(=O)(=O)c4cccc(-c5ccc(CNCC(F)(F)F)cc5)c4)CC3)C2)c1 (stereo partly drawn) [Compound 321, 3-((2S)-2-hydroxy-3-(8-(4′-((2,2,2-trifluoroethylamino)methyl)biphenyl-3-ylsulfonyl)-1-oxa-8-azaspiro[4.5]decan-3-ylamino)propoxy)-N-methylbenzenesulfonamide]
Second: CNS(=O)(=O)c1cccc(OC[C@@H](O)CNC2COC3(CCN(S(=O)(=O)c4ccc5occc5c4)CC3)C2)c1 (stereo partly drawn) [Compound 331, 3-((2S)-3-(8-(benzofuran-5-ylsulfonyl)-1-oxa-8-azaspiro[4.5]decan-3-ylamino)-2-hydroxypropoxy)-N-methylbenzenesulfonamide]
The IC50 of the first is 3.6-fold higher: 70.5 nM for the first, 19.6 nM for the second. The second is the more potent here.

`CNS(=O)(=O)c1cccc(OC[C@@H](O)CNC2COC3(CCN(S(=O)(=O)c4ccccn4)CC3)C2)c1` (stereo partly drawn) [Compound 322, 3-((2S)-2-hydroxy-3-(8-(pyridin-2-ylsulfonyl)-1-oxa-8-azaspiro[4.5]decan-3-ylamino)propoxy)-N-methylbenzenesulfonamide] and `CNS(=O)(=O)c1cccc(OC[C@@H](O)CNC2COC3(CCN(S(=O)(=O)c4cccnc4)CC3)C2)c1` (stereo partly drawn) [Compound 324, 3-((2S)-2-hydroxy-3-(8-(pyridin-3-ylsulfonyl)-1-oxa-8-azaspiro[4.5]decan-3-ylamino)propoxy)-N-methylbenzenesulfonamide] are within 1.5-fold of each other in IC50: 73.5 nM for the first, 78 nM for the second.

First: CNS(=O)(=O)c1cccc(OC[C@@H](O)CNC2COC3(CCN(S(=O)(=O)c4ccc5ncccc5c4)CC3)C2)c1 (stereo partly drawn) [Compound 323, 3-((2S)-2-hydroxy-3-(8-(quinolin-6-ylsulfonyl)-1-oxa-8-azaspiro[4.5]decan-3-ylamino)propoxy)-N-methylbenzenesulfonamide]
Second: CNS(=O)(=O)c1cccc(OC[C@@H](O)CNC2COC3(CCN(S(=O)(=O)c4ccc5[nH]ncc5c4)CC3)C2)c1 (stereo partly drawn) [Compound 325, 3-((2S)-3-(8-(1H-indazol-5-ylsulfonyl)-1-oxa-8-azaspiro[4.5]decan-3-ylamino)-2-hydroxypropoxy)-N-methylbenzenesulfonamide]
The IC50 of the first is 1.7-fold lower: 24.8 nM for the first, 42.7 nM for the second.

First: CNS(=O)(=O)c1cccc(OC[C@@H](O)CNC2COC3(CCN(S(=O)(=O)c4cc5ccccc5o4)CC3)C2)c1 (stereo partly drawn) [Compound 326, 3-((2S)-3-(8-(benzofuran-2-ylsulfonyl)-1-oxa-8-azaspiro[4.5]decan-3-ylamino)-2-hydroxypropoxy)-N-methylbenzenesulfonamide]
Second: CNS(=O)(=O)c1cccc(OC[C@@H](O)CNC2COC3(CCN(S(=O)(=O)c4ccc5oncc5c4)CC3)C2)c1 (stereo partly drawn) [Compound 327, 3-((2S)-3-(8-(benzo[d]isoxazol-5-ylsulfonyl)-1-oxa-8-azaspiro[4.5]decan-3-ylamino)-2-hydroxypropoxy)-N-methylbenzenesulfonamide]
The IC50 of the first is 7.9-fold lower: 11.7 nM for the first, 92.1 nM for the second.

`CNS(=O)(=O)c1cccc(OC[C@@H](O)CNC2COC3(CCN(S(=O)(=O)c4ccc5cn[nH]c5c4)CC3)C2)c1` (stereo partly drawn) [Compound 328, 3-((2S)-3-(8-(1H-indazol-6-ylsulfonyl)-1-oxa-8-azaspiro[4.5]decan-3-ylamino)-2-hydroxypropoxy)-N-methylbenzenesulfonamide] and `CNS(=O)(=O)c1cccc(OC[C@@H](O)CNC2COC3(CCN(S(=O)(=O)c4ccc5c(c4)CCO5)CC3)C2)c1` (stereo partly drawn) [Compound 330, 3-((2S)-3-(8-(2,3-dihydrobenzofuran-5-ylsulfonyl)-1-oxa-8-azaspiro[4.5]decan-3-ylamino)-2-hydroxypropoxy)-N-methylbenzenesulfonamide] are within 1.5-fold of each other in IC50: 37 nM for the first, 36.7 nM for the second.

Compared with `CCn1ncc(S(=O)(=O)N2CCC3(CC2)CC(NC[C@H](O)COc2cccc(S(=O)(=O)NC)c2)CO3)c1C` (stereo partly drawn) [Compound 329, 3-((2S)-3-(8-(1-ethyl-5-methyl-1H-pyrazol-4-ylsulfonyl)-1-oxa-8-azaspiro[4.5]decan-3-ylamino)-2-hydroxypropoxy)-N-methylbenzenesulfonamide], `CCN1CCOc2ccc(S(=O)(=O)N3CCC4(CC3)CC(NC[C@H](O)COc3cccc(S(=O)(=O)NC)c3)CO4)cc21` (stereo partly drawn) [Compound 333, 3-((2S)-3-(8-(4-ethyl-3,4-dihydro-2H-benzo[b][1,4]oxazin-6-ylsulfonyl)-1-oxa-8-azaspiro[4.5]decan-3-ylamino)-2-hydroxypropoxy)-N-methylbenzenesulfonamide] is 17-fold lower in IC50: 156 nM for the first, 9.02 nM for the second.

Going from `CNS(=O)(=O)c1cccc(OC[C@@H](O)CNC2COC3(CCN(S(=O)(=O)c4ccc5c(c4)OCCO5)CC3)C2)c1` (stereo partly drawn) [Compound 332, 3-((2S)-3-(8-(2,3-dihydrobenzo[b][1,4]dioxin-6-ylsulfonyl)-1-oxa-8-azaspiro[4.5]decan-3-ylamino)-2-hydroxypropoxy)-N-methylbenzenesulfonamide] to `CNS(=O)(=O)c1cccc(OC[C@@H](O)CNC2COC3(CCN(S(=O)(=O)c4ccc5c(c4)N(C(C)C)CCO5)CC3)C2)c1` (stereo partly drawn) [Compound 334, 3-((2S)-2-hydroxy-3-(8-(4-isopropyl-3,4-dihydro-2H-benzo[b][1,4]oxazin-6-ylsulfonyl)-1-oxa-8-azaspiro[4.5]decan-3-ylamino)propoxy)-N-methylbenzenesulfonamide], the IC50 rises from 17.9 nM to 27.3 nM (1.5-fold).
